target: CXCR7 (Homo sapiens (Human), UniProt P25106); experiment: PathHunter CHO-K1 CXCR7 β-arrestin assay (agonistic activity); type: cell-based; conditions: β-arrestin recruitment in PathHunter CHO-K1 CXCR7 β-arrestin cells, 90 minutes at 37° C., geometric mean values
Method: The CXCI12 receptor and CXCR7 agonistic activities of the compounds of formula (I) are determined in accordance with the following experimental method.
The assay is using the PathHunter™ CHO-K1 CXCR7 β-arrestin cell line from DiscoverX. The system is based on the Enzyme Fragment Complementation Technology. Two complementing fragments of the β-galactosidase enzyme are expressed within stably transfected cells. The larger portion of β-gal, termed EA for Enzyme Acceptor, is fused to the C-terminus of b-arrestin 2. The smaller fragment, termed ProLink™ tag, is fused to CXCR7 at the C-terminus. Upon activation, b-arrestin is recruited which forces the interaction of ProLink and EA, allowing complementation of the two fragments of b-gal and the formation of a functional enzyme which is capable of hydrolysing the substrate and generating a chemiluminescent signal.
CHO-K1 CXCR7 β-arrestin cells are detached from culture dishes with a cell dissociation buffer (Invitrogen, #13151-014) and collected in growing medium (F12 HAMS 90% (v/v)/FCS 10% (v/v), Penicillin/streptomycin 1% (v/v)). 5000 cells per well (in 20 μl) are seeded in a 384 well plate (white-walled, clear bottom; BD Falcon #353274). The plate is incubated at 37° C./5% CO2 for 24 hours. Medium is then replaced by 20 μl OPTIMEM (Invitrogen #31985) for 3 to 4 hours. Test compounds are dissolved at 10 mM in DMSO and serially diluted in DMSO to 200× of the final concentration for dose response curves. Compounds are then diluted 1:33.3 in HBSS1X. 5 μl/well of HBSS1X/20 mM HEPES/0.2% BSA are added to the assay plate followed by addition of 5 μl/well of diluted compounds. CXCL12 (Peprotech #300-28A) may be used as a reference agonist. The plate is incubated for 90 minutes at 37° C. 12 μl of detection reagent (Path Hunter Detection Kit, DiscoveRx, #93-0001) is transferred to the assay plate and to the plate is incubated for 1 hour at room temperature. Luminescent signal is read in a microplate reader (FLUOstar Optima, bmg). The calculated EC50 values may fluctuate depending on the daily cellular assay performance. Fluctuations of this kind are known to those skilled in the art. Average EC50 values from several measurements are given as geometric mean values.

Sequence of CXCR7 (P25106 whole entry): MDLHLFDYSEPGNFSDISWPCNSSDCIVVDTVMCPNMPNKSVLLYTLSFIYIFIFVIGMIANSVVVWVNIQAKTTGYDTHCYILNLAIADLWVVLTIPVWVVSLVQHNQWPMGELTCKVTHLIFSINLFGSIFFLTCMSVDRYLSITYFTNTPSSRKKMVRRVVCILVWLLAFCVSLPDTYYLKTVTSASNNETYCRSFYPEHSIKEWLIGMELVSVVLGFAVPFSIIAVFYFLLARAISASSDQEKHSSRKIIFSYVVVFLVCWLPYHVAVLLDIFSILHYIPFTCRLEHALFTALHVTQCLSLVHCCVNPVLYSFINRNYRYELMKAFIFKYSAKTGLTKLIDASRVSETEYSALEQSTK
Sequence of CXCR7 (P32121 whole entry partner): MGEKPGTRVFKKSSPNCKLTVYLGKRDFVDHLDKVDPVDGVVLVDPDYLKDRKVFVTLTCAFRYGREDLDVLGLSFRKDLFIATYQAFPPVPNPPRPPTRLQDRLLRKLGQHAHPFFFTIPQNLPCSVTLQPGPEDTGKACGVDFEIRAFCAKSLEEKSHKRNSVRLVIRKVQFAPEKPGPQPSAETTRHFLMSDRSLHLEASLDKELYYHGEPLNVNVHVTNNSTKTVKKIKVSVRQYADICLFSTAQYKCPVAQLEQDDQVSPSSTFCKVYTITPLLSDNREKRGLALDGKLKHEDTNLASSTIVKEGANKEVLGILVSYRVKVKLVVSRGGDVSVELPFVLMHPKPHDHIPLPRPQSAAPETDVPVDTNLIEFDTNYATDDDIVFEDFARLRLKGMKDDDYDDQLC

Going from `CCN1CCOc2c(cccc2NCC(=O)N(CCN2CCCC2)Cc2ncccc2Cl)C1` [Example 75, N-(3-Chloro-pyridin-2-ylmethyl)-2-(4-ethyl-2,3,4,5-tetrahydro-benzo[f][1,4]oxazepin-9-ylamino)-N-(2-pyrrolidin-1-yl-ethyl)-acetamide] to `CN(C)CCN(Cc1ccccc1C(F)(F)F)C(=O)CNc1cccc2c1OCC(=O)N(CC1CC1)C2` [Example 67, 2-(4-Cyclopropylmethyl-3-oxo-2,3,4,5-tetrahydro-benzo[f][1,4]oxazepin-9-ylamino)-N-(2-dimethylamino-ethyl)-N-(2-trifluoromethyl-benzyl)-acetamide], the EC50 rises from 0.019 µM to 0.037 µM (1.9-fold). The first is the more potent here.

First: Cc1cccnc1CN(CCN(C)C)C(=O)CNc1cccc2c1CN(CC1CC1)CCO2 [Example 87, 2-(4-Cyclopropylmethyl-2,3,4,5-tetrahydro-benzo[f][1,4]oxazepin-6-ylamino)-N-(2-dimethylamino-ethyl)-N-(3-methyl-pyridin-2-ylmethyl)-acetamide]
Second: COCC(=O)N1CCc2cccc(OCC(=O)N(CCN(C)C)Cc3ccccc3C(F)(F)F)c2CC1 [Example 24, N-(2-Dimethylamino-ethyl)-2-[3-(2-methoxy-acetyl)-2,3,4,5-tetrahydro-1H-benzo[d]azepin-6-yloxy]-N-(2-trifluoromethyl-benzyl)-acetamide]
The EC50 of the first is 7.7-fold higher: 0.023 µM for the first, 0.003 µM for the second. The second is the more potent here.

Compared with `CN(C)CCN(Cc1c(Cl)cccc1Cl)C(=O)CNc1cccc2c1C(=O)N(CC1CC1)CCO2` [Example 31, 2-(4-Cyclopropylmethyl-5-oxo-2,3,4,5-tetrahydro-benzo[f][1,4]oxazepin-6-ylamino)-N-(2,6-dichloro-benzyl)-N-(2-dimethylamino-ethyl)-acetamide], `CCN1CCOc2c(cccc2NCC(=O)N(CCNC(C)(C)C)Cc2ccccc2C(F)(F)F)C1` [Example 70, N-(2-tert-Butylamino-ethyl)-2-(4-ethyl-2,3,4,5-tetrahydro-benzo[f][1,4]oxazepin-9-ylamino)-N-(2-trifluoromethyl-benzyl)-acetamide] is 6.8-fold lower in EC50: 0.027 µM for the first, 0.004 µM for the second. The second is the more potent here.

Going from `CC(C)(C)NCCN(Cc1ccccc1C(F)(F)F)C(=O)CNc1cccc2c1CN(CC1CC1)CCO2` [Example 93, N-(2-tert-Butylamino-ethyl)-2-(4-cyclopropylmethyl-2,3,4,5-tetrahydro-benzo[f][1,4]oxazepin-6-ylamino)-N-(2-trifluoromethyl-benzyl)-acetamide] to `O=C(CNc1cccc2c1OCCN(CC1CC1)C2=O)N(CCN1CCCC1)Cc1ncccc1C(F)(F)F` [Example 64, 2-(4-Cyclopropylmethyl-5-oxo-2,3,4,5-tetrahydro-benzo[f][1,4]oxazepin-9-ylamino)-N-(2-pyrrolidin-1-yl-ethyl)-N-(3-trifluoromethyl-pyridin-2-ylmethyl)-acetamide], the EC50 rises from 0.003 µM to 0.007 µM (2.3-fold). The first is the more potent here.

Going from `CCN1CCOc2c(NCC(=O)N(CCN3CCCC3)Cc3ncccc3Cl)cccc2C1=O` [Example 59, N-(3-Chloro-pyridin-2-ylmethyl)-2-(4-ethyl-5-oxo-2,3,4,5-tetrahydro-benzo[f][1,4]oxazepin-9-ylamino)-N-(2-pyrrolidin-1-yl-ethyl)-acetamide] to `CC(C)CN1CCOc2c(cccc2NCC(=O)N(CCN(C)C)Cc2c(F)cccc2F)C1` [Example 19, N-(2,6-Difluoro-benzyl)-N-(2-dimethylamino-ethyl)-2-(4-isobutyl-2,3,4,5-tetrahydro-benzo[f][1,4]oxazepin-9-ylamino)-acetamide], the EC50 falls from 0.26 µM to 0.012 µM (22-fold). The second is the more potent here.

`CCN1CCN(CC)c2c(NCC(=O)N(CCN3CCOCC3)Cc3ncccc3C(F)(F)F)cccc2C1=O` [Example 47, 2-(1,4-Diethyl-5-oxo-2,3,4,5-tetrahydro-1H-benzo[e][1,4]diazepin-9-ylamino)-N-(2-morpholin-4-yl-ethyl)-N-(3-trifluoromethyl-pyridin-2-ylmethyl)-acetamide] and `CC(C)N(CCN(Cc1ccccc1C(F)(F)F)C(=O)CNc1cccc2c1N(C)CCN(CC1CC1)C2)C(=O)OC(C)(C)C` [Example 50, {2-[[2-(4-Cyclopropylmethyl-1-methyl-2,3,4,5-tetrahydro-1H-benzo[e][1,4]diazepin-9-ylamino)-acetyl]-(2-trifluoromethyl-benzyl)-amino]-ethyl}-isopropyl-carbamic acid tert-butyl ester] are within 1.5-fold of each other in EC50: 0.43 µM for the first, 0.34 µM for the second.

Going from `CC(C)NCCN(Cc1ccccc1C(F)(F)F)C(=O)CNc1cccc2c1OCCN(CC1CC1)C2=O` [Example 62, 2-(4-Cyclopropylmethyl-5-oxo-2,3,4,5-tetrahydro-benzo[f][1,4]oxazepin-9-ylamino)-N-(2-isopropylamino-ethyl)-N-(2-trifluoromethyl-benzyl)-acetamide] to `CC(=O)N1CCOc2c(cccc2NCC(=O)N(CCN(C)C)Cc2ccccc2C(F)(F)F)C1` [Example 20, 2-(4-Acetyl-2,3,4,5-tetrahydro-benzo[f][1,4]oxazepin-9-ylamino)-N-(2-dimethylamino-ethyl)-N-(2-trifluoromethyl-benzyl)-acetamide], the EC50 rises from 0.005 µM to 0.073 µM (15-fold).

First: CCN1CCOc2c(cccc2NCC(=O)N(CCN(C)C(=O)OC(C)(C)C)Cc2ncccc2Cl)C1 [Example 78, (2-{(3-Chloro-pyridin-2-ylmethyl)-[2-(4-ethyl-2,3,4,5-tetrahydro-benzo[f][1,4]oxazepin-9-ylamino)-acetyl]-amino}-ethyl)-methyl-carbamic acid tert-butyl ester]
Second: CCN1CCOc2c(cccc2NCC(=O)N(CCN(C)C)Cc2cnc(C(F)(F)F)s2)C1 [Example 76, N-(2-Dimethylamino-ethyl)-2-(4-ethyl-2,3,4,5-tetrahydro-benzo[f][1,4]oxazepin-9-ylamino)-N-(2-trifluoromethyl-thiazol-5-ylmethyl)-acetamide]
The EC50 of the first is 1.8-fold lower: 0.24 µM for the first, 0.43 µM for the second. The first is the more potent here.

Going from `CC(C)NCCN(Cc1ccccc1C(F)(F)F)C(=O)CNc1cccc2c1N(C)CCN(CC1CC1)C2` [Example 52, 2-(4-Cyclopropylmethyl-1-methyl-2,3,4,5-tetrahydro-1H-benzo[e][1,4]diazepin-9-ylamino)-N-(2-isopropylamino-ethyl)-N-(2-trifluoromethyl-benzyl)-acetamide] to `CCN1CCOc2c(NCC(=O)N(CCNC(C)C)Cc3ccccc3C(F)(F)F)cccc2C1=O` [Example 56, 2-(4-Ethyl-5-oxo-2,3,4,5-tetrahydro-benzo[f][1,4]oxazepin-9-ylamino)-N-(2-isopropylamino-ethyl)-N-(2-trifluoromethyl-benzyl)-acetamide], the EC50 rises from 0.001 µM to 0.016 µM (16-fold).

Going from `O=C(CNc1cccc2c1OCC(=O)N(CC1CC1)C2)N(CCN1CCCC1)Cc1ncccc1C(F)(F)F` [Example 65, 2-(4-cyclopropylmethyl-3-oxo-2,3,4,5-tetrahydro-benzo[f][1,4]oxazepin-9-ylamino)-N-(2-pyrrolidin-1-yl-ethyl)-N-(3-trifluoromethyl-pyridin-2-ylmethyl)-acetamide] to `CC(C)CN1CCOc2c(cccc2NCC(=O)N(CCN(C)C)Cc2cccc(C(F)(F)F)c2)C1` [Example 18, N-(2-Dimethylamino-ethyl)-2-(4-isobutyl-2,3,4,5-tetrahydro-benzo[f][1,4]oxazepin-9-ylamino)-N-(3-trifluoromethyl-benzyl)-acetamide], the EC50 rises from 0.018 µM to 0.053 µM (2.9-fold).

“2-(4-Cyclopropylmethyl-1-methyl-2,3,4,5-tetrahydro-1H-benzo[e][1,4]diazepin-9-ylamino)-N-(2-morpholin-4-yl-ethyl)-N-(3-trifluoromethyl-pyridin-2-ylmethyl)-acetamide [Example 55]” and `CC(C)(C)NCCN(Cc1ccccc1Cl)C(=O)CNc1cccc2c1CN(CC1CC1)CCO2` [Example 91, N-(2-tert-Butylamino-ethyl)-N-(2-chloro-benzyl)-2-(4-cyclopropylmethyl-2,3,4,5-tetrahydro-benzo[f][1,4]oxazepin-6-ylamino)-acetamide] are within 1.5-fold of each other in EC50: 0.01 µM for the first, 0.008 µM for the second.

Going from `CC(C)NCCN(Cc1ncccc1C(F)(F)F)C(=O)CNc1cccc2c1CN(CC1CC1)CCO2` [Example 90, 2-(4-Cyclopropylmethyl-2,3,4,5-tetrahydro-benzo[f][1,4]oxazepin-6-ylamino)-N-(2-isopropylamino-ethyl)-N-(3-trifluoromethyl-pyridin-2-ylmethyl)-acetamide] to `CC(C)(C)NCCN(Cc1ccccc1C(F)(F)F)C(=O)CNc1cccc2c1OCC(=O)N(CC1CC1)C2` [Example 66, N-(2-tert-butylamino-ethyl)-2-(4-cyclopropylmethyl-3-oxo-2,3,4,5-tetrahydro-benzo[f][1,4]oxazepin-9-ylamino)-N-(2-trifluoromethyl-benzyl)-acetamide], the EC50 rises from 0.007 µM to 0.018 µM (2.6-fold).

Source: US10202368B2, “CXCR7 receptor modulators” (IDORSIA PHARMACEUTICALS LTD, priority 2014, dated 2019)
